Assay results as given in patent US20090036547A1 (priority 2005, published 2009).

What was measured:
[1] = test system: Anopheles albimanus (Carbamate Resistant) FEST larvae; assay: WHO standard larval bioassay; format: in vivo; settings: Example 2, An. albimanus Carbamate Resistant, 10% working dilution in ethanol (mixture 5%+5%), 24 hours
[2] = test system: Aedes aegypti (susceptible) AeAe larvae; assay: WHO standard larval bioassay; format: in vivo; settings: Example 2, Ae. Aegypti Susceptible, 10% working dilution in ethanol (mixture 5%+5%), 24 hours
[3] = test system: Anopheles gambiae (DDT resistant) ZANDS larvae; assay: WHO standard larval bioassay; format: in vivo; settings: Example 2, An. Gambiae DDT Resistant, 10% working dilution in ethanol (mixture 5%+5%), 24 hours
[4] = test system: Culex pipiens pipiens (susceptible) Pip larvae; assay: WHO standard larval bioassay; format: in vivo; settings: Example 2, Cx. pipiens Susceptible, 10% working dilution in ethanol (mixture 5%+5%), 24 hours
[5] = test system: range of mosquito species (larvae); assay: WHO standard larval bioassay, summary over all strains; format: in vivo, Anopheles, Aedes, Culex; settings: Example 2, LD90 similar in susceptible and resistant strains
[6] = test system: Aedes albopictus (susceptible) Albo larvae; assay: WHO standard larval bioassay; format: in vivo; settings: Example 2, Ae. albopictus Susceptible, 10% working dilution in ethanol (mixture 5%+5%), 24 hours
[7] = test system: Anopheles gambiae (susceptible) KWA larvae; assay: WHO standard larval bioassay; format: in vivo; settings: Example 2, An. Gambiae Susceptible, 10% working dilution in ethanol (mixture 5%+5%), 24 hours
[8] = test system: Anopheles albimanus (susceptible) Mexico larvae; assay: WHO standard larval bioassay; format: in vivo; settings: Example 2, An. Albimanus Susceptible, 10% working dilution in ethanol (mixture 5%+5%), 24 hours
[9] = test system: Anopheles gambiae (Pyrethroid Resistant) VKPR larvae; assay: WHO standard larval bioassay; format: in vivo; settings: Example 2, An. Gambiae Py. Resistant, 10% working dilution in ethanol (mixture 5%+5%), 24 hours
[10] = test system: Anopheles stephensi (susceptible) Beech larvae; assay: WHO standard larval bioassay; format: in vivo; settings: Example 2, An. Stephensi Susceptible, 10% working dilution in ethanol (mixture 5%+5%), 24 hours
[11] = test system: Anopheles stephensi (Organophosphate Resistant) ST Mal larvae; assay: WHO standard larval bioassay; format: in vivo; settings: Example 2, An. Stephensi OP Resistant, 10% working dilution in ethanol (mixture 5%+5%), 24 hours
[12] = test system: Culex quinquefasciatus (susceptible) Muheza larvae; assay: WHO standard larval bioassay; format: in vivo; settings: Example 2, Cx. quinquefasciatus Susceptible, 10% working dilution in ethanol (mixture 5%+5%), 24 hours

SMILES	LD90 [1]	LD90 [2]	LD90 [3]	LD90 [4]	cross resistance to existing insecticide classes (pyrethroids/OP's/Carbamates/Organochlorines) [5]	LD90 [6]	LD90 [7]	LD90 [8]	LD90 [9]	LD90 [10]	LD90 [11]	LD90 [12]
Cc1ccc(C(C)C)c(O)c1 [Thymol]	0.224 mL	0.302 mL	0.235 mL	0.135 mL	no evidence of cross resistance	0.172 mL	0.177 mL	0.115 mL	0.261 mL	0.112 mL	0.177 mL	0.330 mL
Cc1ccc(C(C)C)cc1 [p-Cymene, p-cymene]	0.191 mL	0.198 mL	0.204 mL	0.120 mL	no evidence of cross resistance	0.150 mL	0.140 mL	0.088 mL	0.202 mL	0.085 mL	0.134 mL	0.215 mL
